This is an account of results in patent US20230219906A1, “MACROCYCLIC-2-AMINO-3-FLUORO-BUT-3-ENAMIDES AS INHIBITORS OF MCL-1” (Janssen Pharmaceutica NV, priority 2020, published 2023).

Where two headings read alike, the source gives them in different places.

Experiment [1] addresses Myeloid Cell Leukemia 1(Mcl-1) (Homo sapiens, UniProt Q07820). Description: Terbium labeled Mcl-1 HTRF binding assay with Cy5-labeled BIM BH3 peptide. Particulars: displacement of Cy5 Bim BH3 peptide; Ki=IC50/(1+[L]/Kd), [L]=8 nM, Kd=10 nM; 60 minutes at room temperature; read-out: Tb-MCL1 Ki. Here is the method:
Terbium labeled Myeloid Cell Leukemia 1(Mcl-1) homogeneous time-resolved fluorescence (HTRF) binding assay utilizing the BIM BH3 peptide (H2N—(C/Cy5Mal) WIAQELRRIGDEFN-OH) as the binding partner for Mcl-1.
This assay evaluated inhibition of the BH3 domain: Mcl-1 interaction by measuring the displacement of Cy5-labeled BIM BH3 peptide (H2N—(C/Cy5Mal) WIAQELRRIGDEFN-OH) in the HTRF assay format.
The following assay and stock buffers were prepared for use in the assay: (a) Stock buffer: 10 mM Tris-HCl, pH=7.5+150 mM NaCl, filtered, sterilized, and stored at 4° C.; and (b) 1X assay buffer, where the following ingredients were added fresh to stock buffer: 2 mM dithiothreitol (DTT), 0.0025% Tween-20, 0.1 mg/mL bovine serum albumin (BSA). The 1X Tb-Mcl-1+Cy5 Bim peptide solution was prepared by diluting the protein stock solution using the 1X assay buffer (b) to 25 pM Tb-Mcl-1 and 8 nM Cy5 Bim peptide.
Using the Acoustic ECHO, 100 nL of 100x test compound(s) were dispensed into individual wells of a white 384-well Perkin Elmer Proxiplate, for a final compound concentration of 1× and final DMSO concentration of 1%. Inhibitor control and neutral control (NC, 100 nL of 100% DMSO) were stamped into columns 23 and 24 of assay plate, respectively. Into each well of the plate was then dispensed 10 μL of the 1X Tb-Mcl-1+Cy5 Bim peptide solution. The plate was centrifuged with a cover plate at 1000 rpm for 1 minute, then incubated for 60 minutes at room temperature with plates covered.
The TR-FRET signal was read on an BMG PHERAStar FSX MicroPlate Reader at room temperature using the HTRF optic module (HTRF: excitation: 337 nm, light source: laser, emission A: 665 nm, emission B: 620 nm, integration start: 60 μs, integration time: […]).
The BMG PHERAStar FSX MicroPlate Reader was used to measure fluorescence intensity at two emission wavelengths—665 nm and 620 nm—and report relative fluorescence units (RFU) for both emissions, as well as a ratio of the emissions (665 nm/620 nm)*10,000. The RFU values were normalized to percent inhibition as follows:
% inhibition=(((NC−IC)−(compound−IC))/(NC−IC))*100
where IC (inhibitor control, low signal)= mean signal of 1X Tb-MCl-1+Cy5 Bim peptide+inhibitor control or 100% inhibition of Mcl-1; NC (neutral control, high signal)= mean signal 1X Tb-MCl-1+Cy5 Bim peptide with DMSO only or 0% inhibition An 11-point dose response curve was generated to determine IC50 values (using GenData) based on the following equation:
Y=Bottom+(Top−Bottom)/(1+10∧((log IC50−X)*HillSlope))
where Y=% inhibition in the presence of X inhibitor concentration; Top=100% inhibition derived from the IC (mean signal of Mcl-1+inhibitor control); Bottom=0% inhibition derived from the NC (mean signal of Mcl-1+DMSO); Hillslope=Hill coefficient; and IC50=concentration of compound with 50% inhibition in relation to top/neutral control (NC).
In this assay [L]=8 nM and Kd=10 nM
A general note: Time-resolved FRET reads energy transfer from a long-lived donor to a nearby acceptor.

Experiment [2] has as its system MOLP-8 human multiple myeloma cell line. Description: Caspase-Glo 3/7 apoptosis induction assay in MOLP-8 cells. Format: cell-based. Particulars: caspase-3/7 activity, 2 hours at 37° C., averaged over all runs on all batches, read-out: MOLP8 AC50. The source says:
MCL-1 is a regulator of apoptosis and is highly over-expressed in tumor cells that escape cell death. The assay evaluates the cellular potency of small-molecule compounds targeting regulators of the apoptosis pathway, primarily MCL-1, Bfl-1, Bcl-2, and other proteins of the Bcl-2 family. Protein-protein inhibitors disrupting the interaction of anti-apoptotic regulators with BH3-domain proteins initiate apoptosis.
The Caspase-Glo® 3/7 Assay is a luminescent assay that measures caspase-3 and −7 activities in purified enzyme preparations or cultures of adherent or suspension cells. The assay provides a proluminescent caspase-3/7 substrate, which contains the tetrapeptide sequence DEVD. This substrate is cleaved to release aminoluciferin, a substrate of luciferase used in the production of light. Addition of the single Caspase-Glo® 3/7 Reagent in an “add-mix-measure” format results in cell lysis, followed by caspase cleavage of the substrate and generation of a “glow-type” luminescent signal.
This assay uses the MOLP-8 human multiple myeloma cell line, which is sensitive to MCL-1 inhibition.
Cell cultures were maintained between 0.2 and 2.0×10^6 cells/mL. The cells were harvested by collection in 50 mL conical tubes. The cells were then pelleted at 500 g for 5 mins before removing supernatant and resuspension in fresh pre-warmed culture medium. The cells were counted and diluted as needed.
The assay reagent was prepared by transferring the buffer solution to the substrate vial and mixing. The solution may be stored for up to 1 week at 4° C. with negligible loss of signal.
Compounds were delivered in assay-ready plates (Proxiplate) and stored at −20° C. Assays always include 1 reference compound plate containing reference compounds. The plates were spotted with 40 nL of compounds (0.5% DMSO final in cells; serial dilution; […] highest conc. 1/3 dilution, 10 doses, duplicates). The compounds were used at room temperature and 4 μL of pre-warmed media was added to all wells except column 2 and 23. The negative control was prepared by adding 1% DMSO in media. The positive control was prepared by adding the appropriate positive control compound in final concentration of […] in media. The plate was prepared by adding 4 μL negative control to column 23, 4 μL positive control to column 2 and 4 μL cell suspension to all wells in the plate. The plate with cells was then incubated at 37° C. for 2 hours. The assay signal reagent is the Caspase-Glo solution described above, and 8 μL was added to all wells. The plates were then sealed and measured after 30 minutes.
The activity of a test compound was calculated as percent change in apoptosis induction as follows:
% Effect (AC50)=100−(sample-LC)/(HC-LC)*100
% Control=(sample/HC)*100
% Control min=(sample-LC)/(HC-LC)*100

For orientation: Ki means a dissociation constant, usually derived from enzyme kinetics or from competition with a known ligand. Usually AC50 stands for the concentration at which the activity in the assay is half-maximal.

Myeloid Cell Leukemia 1(Mcl-1), sequence (Q07820 whole entry): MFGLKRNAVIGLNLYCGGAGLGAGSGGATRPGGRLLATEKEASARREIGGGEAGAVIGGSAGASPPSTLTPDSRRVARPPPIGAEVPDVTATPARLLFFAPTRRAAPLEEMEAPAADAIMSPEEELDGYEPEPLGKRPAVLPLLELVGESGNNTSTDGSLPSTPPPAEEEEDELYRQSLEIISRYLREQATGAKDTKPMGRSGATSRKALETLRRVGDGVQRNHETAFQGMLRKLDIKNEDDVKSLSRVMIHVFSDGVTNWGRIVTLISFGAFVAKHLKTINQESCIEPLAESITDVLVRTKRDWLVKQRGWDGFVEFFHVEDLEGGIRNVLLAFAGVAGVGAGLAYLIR

With `CC1CN(CCN(C)C(=O)[C@H]2/C(F)=C/C[C@H](C)[C@@H](C)S(=O)(=O)NC(=O)c3ccc4c(c3)N(C[C@@H]3CCCN32)C[C@@]2(CCCc3cc(Cl)ccc32)CO4)CC(C)O1` (mixture of isomers) [Compound 45], the Ki in experiment [1] was 0.113 nM. Also, in experiment [2], the AC50 came out at 113 nM.

With `C[C@@H]1[C@@H](C)C/C=C(\F)[C@H](C(=O)N(C)CCN2CCOCC2C(F)(F)F)N2CCC[C@H]2CN2C[C@@]3(CCCc4cc(Cl)ccc43)COc3ccc(cc32)C(=O)NS1(=O)=O` (mixture of isomers) [Compound 50], the Ki in experiment [1] turned out to be 0.146 nM. Besides, in experiment [2] (Homo sapiens, MOLP-8, 2 h), the AC50 amounted to 175 nM.

For the compound `C[C@@H]1[C@@H](C)C/C=C(\F)[C@H](C(=O)N(C)CCC2CCOCC2)N2CCC[C@H]2CN2C[C@@]3(CCCc4cc(Cl)ccc43)COc3ccc(cc32)C(=O)NS1(=O)=O` (single isomer, unassigned) [Compound 2], in experiment [1], the Ki amounted to 0.089 nM. In addition, the AC50 in experiment [2] (Homo sapiens, MOLP-8, 2 h) was 89.2 nM.

As for `C[C@@H]1COCCN1C(=O)[C@H]1/C(F)=C/C[C@H](C)[C@@H](C)S(=O)(=O)NC(=O)c2ccc3c(c2)N(C[C@@H]2CCCN21)C[C@@]1(CCCc2cc(Cl)ccc21)CO3` (single isomer, unassigned) [Compound 11], the inhibition constant (Ki) in experiment [1] is 0.032 nM. Besides, in experiment [2] (Homo sapiens, MOLP-8, 2 h), the AC50 amounted to 163 nM.

In the case of `C[C@@H]1[C@@H](C)C/C=C(\F)[C@H](C(=O)N2CCCC3(CCOC3)C2)N2CCC[C@H]2CN2C[C@@]3(CCCc4cc(Cl)ccc43)COc3ccc(cc32)C(=O)NS1(=O)=O` (single isomer, unassigned) [Compound 14], the Ki in experiment [1] amounted to 0.126 nM. Moreover, the AC50 in experiment [2] (Homo sapiens, MOLP-8, 2 h) was 266 nM.

Take `C[C@@H]1[C@@H](C)C/C=C(\F)[C@H](C(=O)N2CCCC3(CC3)C2)N2CCC[C@H]2CN2C[C@@]3(CCCc4cc(Cl)ccc43)COc3ccc(cc32)C(=O)NS1(=O)=O` (single isomer, unassigned) [Compound 16]: in experiment [1], the inhibitory constant (Ki) worked out at 0.446 nM. Moreover, in experiment [2] (Homo sapiens, MOLP-8, 2 h), the AC50 was 446 nM.

`C[C@@H]1[C@@H](C)C/C=C(\F)[C@H](C(=O)N2CCOC(C(F)(F)F)C2)N2CCC[C@H]2CN2C[C@@]3(CCCc4cc(Cl)ccc43)COc3ccc(cc32)C(=O)NS1(=O)=O` (single isomer, unassigned) [Compound 20]: in experiment [1], the Ki turned out to be 0.255 nM. In addition, the AC50 in experiment [2] (Homo sapiens, MOLP-8, 2 h) turned out to be 193 nM.

For `C[C@@H]1[C@@H](C)C/C=C(\F)[C@@H](C(=O)N(C)CCN2CCOCC2)N2CCC[C@H]2CN2C[C@@]3(CCCc4cc(Cl)ccc43)COc3ccc(cc32)C(=O)NS1(=O)=O` (single isomer, unassigned) [Compound 33], the Ki in experiment [1] came to 0.195 nM. The AC50 in experiment [2] (Homo sapiens, MOLP-8, 2 h) worked out at 218 nM.

Regarding `C[C@@H]1[C@@H](C)C/C=C(\F)[C@H](C(=O)N(C)CCN2CCOC(C(F)(F)F)C2)N2CCC[C@H]2CN2C[C@@]3(CCCc4cc(Cl)ccc43)COc3ccc(cc32)C(=O)NS1(=O)=O` (single isomer, unassigned) [Compound 49], the Ki in experiment [1] was found to be 0.287 nM. The AC50 in experiment [2] (Homo sapiens, MOLP-8, 2 h) is 366 nM.

As for `COCCCN(C)C(=O)[C@H]1/C(F)=C/C[C@H](C)[C@@H](C)S(=O)(=O)NC(=O)c2ccc3c(c2)N(C[C@@H]2CCCN21)C[C@@]1(CCCc2cc(Cl)ccc21)CO3` (single isomer, unassigned) [Compound 51], the Ki in experiment [1] came out at 0.04 nM. The AC50 in experiment [2] (Homo sapiens, MOLP-8, 2 h) worked out at 78.3 nM.

Turning to `C[C@@H]1[C@@H](C)C/C=C(\F)[C@H](C(=O)N(C)CC2COCCO2)N2CCC[C@H]2CN2C[C@@]3(CCCc4cc(Cl)ccc43)COc3ccc(cc32)C(=O)NS1(=O)=O` (single isomer, unassigned) [Compound 54], the Ki in experiment [1] was 0.042 nM. For the same compound, in experiment [2] (Homo sapiens, MOLP-8, 2 h), the AC50 was 76.4 nM.

In the case of `C[C@@H]1[C@@H](C)C/C=C(\F)[C@H](C(=O)N(C)CC2COCCO2)N2CCC[C@H]2CN2C[C@@]3(CCCc4cc(Cl)ccc43)COc3ccc(cc32)C(=O)NS1(=O)=O` (single isomer, unassigned) [Compound 55], in experiment [1], the Ki is 0.037 nM. In addition, in experiment [2], the AC50 was found to be 81.2 nM.

Turning to `C[C@@H]1[C@@H](C)C/C=C(\F)[C@H](C(=O)N(C)CC2CCOC2)N2CCC[C@H]2CN2C[C@@]3(CCCc4cc(Cl)ccc43)COc3ccc(cc32)C(=O)NS1(=O)=O` (single isomer, unassigned) [Compound 56], the Ki in experiment [1] was 0.038 nM. Besides, the AC50 in experiment [2] (Homo sapiens, MOLP-8, 2 h) came to 89.4 nM.

Consider `C[C@@H]1[C@@H](C)C/C=C(\F)[C@H](C(=O)N(C)CC2CCOC2)N2CCC[C@H]2CN2C[C@@]3(CCCc4cc(Cl)ccc43)COc3ccc(cc32)C(=O)NS1(=O)=O` (single isomer, unassigned) [Compound 57], for which the Ki in experiment [1] amounted to 0.051 nM. Moreover, the concentration at half-maximal activity (AC50) in experiment [2] is 84.4 nM.

As to `C[C@@H]1[C@@H](C)C/C=C(\F)[C@H](C(=O)N(C)C2CCCOC2)N2CCC[C@H]2CN2C[C@@]3(CCCc4cc(Cl)ccc43)COc3ccc(cc32)C(=O)NS1(=O)=O` (single isomer, unassigned) [Compound 62], the Ki in experiment [1] amounted to 0.058 nM. The AC50 in experiment [2] (Homo sapiens, MOLP-8, 2 h) was determined as 134 nM.

For `C[C@@H]1[C@@H](C)C/C=C(\F)[C@H](C(=O)N(C)C2CCCOC2)N2CCC[C@H]2CN2C[C@@]3(CCCc4cc(Cl)ccc43)COc3ccc(cc32)C(=O)NS1(=O)=O` (single isomer, unassigned) [Compound 63], the inhibition constant Ki in experiment [1] was 0.041 nM. In experiment [2], the AC50 is 57.4 nM.

Turning to `C[C@@H]1[C@@H](C)C/C=C(\F)[C@H](C(=O)N(C)CC2CCCOC2)N2CCC[C@H]2CN2C[C@@]3(CCCc4cc(Cl)ccc43)COc3ccc(cc32)C(=O)NS1(=O)=O` (single isomer, unassigned) [Compound 64], the Ki in experiment [1] was found to be 0.083 nM. Further, the AC50 in experiment [2] (Homo sapiens, MOLP-8, 2 h) stood at 74.7 nM.

Take `C[C@@H]1[C@@H](C)C/C=C(\F)[C@H](C(=O)N2CCO[C@@H](C)C2)N2CCC[C@H]2CN2C[C@@]3(CCCc4cc(Cl)ccc43)COc3ccc(cc32)C(=O)NS1(=O)=O` [Compound 6]: in experiment [2] (Homo sapiens, MOLP-8, 2 h), the AC50 stood at 84.3 nM.
